Patent US10183914B2 (BAYER CROPSCIENCE AKTIENGESELLSCHAFT, priority 2014, dated 2019)

Tests used:
[1] = tested on: Triticum aestivum (spring); experiment: Post-emergence herbicidal effect and crop plant compatibility; format: in vivo; conditions: visual scoring after about 3 weeks
Summary of the method: (§1)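 Foliar treatment: wettable powder or emulsion concentrate diluted in water, 600 to 800 L/ha, with 0.2% wetting agent, sprayed at one leaf. Readout: percent damage judged visually after ~3 wk in greenhouse, relative to untreated plants.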

Setaria viridis [2] = experiment: Post-emergence herbicidal effect; format: in vivo; conditions: 320 g/ha (dose by row order of upper half), scoring after about 3 weeks
Summary of the method: as §1

Lolium multiflorum [3] = experiment: Post-emergence herbicidal effect; format: in vivo; conditions: visual scoring after about 3 weeks
Summary of the method: as §1

Echinochloa crus-galli [4] = experiment: Post-emergence herbicidal effect; format: in vivo; conditions: visual scoring after about 3 weeks
Summary of the method: as §1

Alopecurus myosuroides [5] = experiment: Post-emergence herbicidal effect; format: in vivo; conditions: 320 g/ha, visual scoring after about 3 weeks
Summary of the method: as §1

Ipomoea purpurea = experiment: Post-emergence herbicidal effect; format: in vivo; conditions: scoring after about 3 weeks
Summary of the method: as §1

Zea mays [6] = experiment: Pre-emergence herbicidal effect and crop plant compatibility; format: in vivo; conditions: 3 weeks
Summary of the method: (§2)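 Seeds sown in sandy loam in wood-fiber pots and covered with soil; compounds formulated as WP or EC applied to the soil surface as aqueous suspension or emulsion at 600 to 800 L/ha water with 0.2% wetting agent. Greenhouse growth; visual damage scored after 3 weeks versus untreated controls (0–100%).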

[7] = tested on: Triticum aestivum (spring); experiment: as above; format: in vivo; conditions: 3 weeks
Summary of the method: as §2

[8] = logp (HCOOH), physicochemical characterization
Setaria viridis [9] = experiment: Pre-emergence herbicidal effect; format: in vivo; conditions: 3 weeks
Summary of the method: as §2

Veronica persica = experiment: Pre-emergence herbicidal effect; format: in vivo; conditions: 3 weeks
Summary of the method: as §2

Polygonum convolvulus = experiment: Pre-emergence herbicidal effect; format: in vivo; conditions: 3 weeks
Summary of the method: as §2

Lolium multiflorum [10] = experiment: Pre-emergence herbicidal effect; format: in vivo; conditions: 3 weeks
Summary of the method: as §2

Echinochloa crus-galli [11] = experiment: Pre-emergence herbicidal effect; format: in vivo; conditions: 3 weeks
Summary of the method: as §2

Alopecurus myosuroides [12] = experiment: Pre-emergence herbicidal effect; format: in vivo; conditions: 3 weeks
Summary of the method: as §2

Avena fatua [13] = experiment: Pre-emergence herbicidal effect; format: in vivo; conditions: 3 weeks
Summary of the method: as §2

Matricaria inodora = experiment: Pre-emergence herbicidal effect; format: in vivo; conditions: 3 weeks
Summary of the method: as §2

Stellaria media = experiment: Pre-emergence herbicidal effect; format: in vivo; conditions: 3 weeks
Summary of the method: as §2

Amaranthus retroflexus = experiment: Pre-emergence herbicidal effect; format: in vivo; conditions: 3 weeks
Summary of the method: as §2

Viola tricolor = experiment: Pre-emergence herbicidal effect; format: in vivo; conditions: 3 weeks
Summary of the method: as §2

Zea mays [14] = experiment: Post-emergence herbicidal effect and crop plant compatibility; format: in vivo; conditions: visual scoring after about 3 weeks
Summary of the method: as §1

Oryza sativa [15] = experiment: as above; format: in vivo; conditions: visual scoring after about 3 weeks
Summary of the method: as §1

Cyperus esculentus = experiment: Pre-emergence herbicidal effect; format: in vivo; conditions: 3 weeks
Summary of the method: as §2

Abutilon theophrasti = experiment: Pre-emergence herbicidal effect; format: in vivo; conditions: 320 g/ha, 3 weeks
Summary of the method: as §2

Avena fatua [16] = experiment: Post-emergence herbicidal effect; format: in vivo; conditions: 320 g/ha, visual scoring after about 3 weeks
Summary of the method: as §1

Oryza sativa [17] = experiment: Pre-emergence herbicidal effect and crop plant compatibility; format: in vivo; conditions: 80 g/ha, 3 weeks
Summary of the method: as §2

[18] = 320 g/ha (dose by row order of upper half)

Compound | post-emergence efficacy TRZAS ([1]; 80 g/ha) | post-emergence efficacy TRZAS ([1]; 320 g/ha) | post-emergence efficacy ECHCG (Echinochloa crus-galli [4]; 80 g/ha) | ZEAMX herbicidal activity in percent (Zea mays [6]; 80 g/ha) | SETVI herbicidal activity in percent (Setaria viridis [9]; 80 g/ha) | VERPE herbicidal activity in percent (Veronica persica; 80 g/ha) | VERPE herbicidal activity in percent (Veronica persica; 320 g/ha) | POLCO herbicidal activity in percent (Polygonum convolvulus; 320 g/ha) | LOLMU herbicidal activity in percent (Lolium multiflorum [10]; 320 g/ha) | ECHCG herbicidal activity in percent (Echinochloa crus-galli [11]; 80 g/ha) | ECHCG herbicidal activity in percent (Echinochloa crus-galli [11]; 320 g/ha) | ALOMY herbicidal activity in percent (Alopecurus myosuroides [12]; 320 g/ha) | MATIN herbicidal activity in percent (Matricaria inodora; 80 g/ha) | MATIN herbicidal activity in percent (Matricaria inodora; 320 g/ha) | STEME herbicidal activity in percent (Stellaria media; 80 g/ha) | STEME herbicidal activity in percent (Stellaria media; 320 g/ha) | AMARE herbicidal activity in percent (Amaranthus retroflexus; 80 g/ha) | AMARE herbicidal activity in percent (Amaranthus retroflexus; 320 g/ha) | VIOTR herbicidal activity in percent (Viola tricolor; 80 g/ha) | VIOTR herbicidal activity in percent (Viola tricolor; 320 g/ha) | further results
Cc1ccc2c(c1)[C@H](Nc1ncc3c(n1)COCC3=O)[C@@H](C)C2 [2.97] | 0% | 0% | 90% | 0% | 100% | 100% | 100% | 100% | 100% | 100% | 100% | 100% | 100% | 100% | 100% | 100% | 100% | 100% | 100% | 100% | post-emergence efficacy SETVI (Setaria viridis [2]): 80%; post-emergence efficacy LOLMU (Lolium multiflorum [3]; 320 g/ha): 100%; post-emergence efficacy ECHCG (Echinochloa crus-galli [4]; 320 g/ha): 100%; post-emergence efficacy ALOMY (Alopecurus myosuroides [5]): 100%; post-emergence efficacy PHBPU (Ipomoea purpurea; [18]): 100%; TRZAS herbicidal activity in percent ([7]; 80 g/ha): 10%; TRZAS herbicidal activity in percent ([7]; 320 g/ha): 20%; logp (HCOOH) [8]: oily; logp (HCOOH): 3.26; 1H-NMR (CDCl3, 400 MHZ, δ in ppm): ): 1.25 (t, 3H,; SETVI herbicidal activity in percent (Setaria viridis [9]; 320 g/ha): 100%; POLCO herbicidal activity in percent (Polygonum convolvulus; 80 g/ha): 100%; ALOMY herbicidal activity in percent (Alopecurus myosuroides [12]; 80 g/ha): 100%; AVEFA herbicidal activity in percent (Avena fatua [13]; 320 g/ha): 100%
O=C1CCCc2nc(N[C@@H]3CCCc4c(F)cccc43)ncc21 [2.13] | 10% | 20% | 90% | 0% | 100% | 100% | 100% | 100% | 100% | 100% | 100% | 100% | 100% | 100% | 100% | 100% | 100% | 100% | 100% | 100% | post-emergence efficacy ZEAMX (Zea mays [14]; 80 g/ha): 10%; post-emergence efficacy ORYSA (Oryza sativa [15]; 80 g/ha): 0%; post-emergence efficacy ORYSA (Oryza sativa [15]; 320 g/ha): 0%; post-emergence efficacy SETVI (Setaria viridis [2]): 100%; post-emergence efficacy ECHCG (Echinochloa crus-galli [4]; 320 g/ha): 100%; post-emergence efficacy ALOMY (Alopecurus myosuroides [5]): 90%; post-emergence efficacy PHBPU (Ipomoea purpurea; [18]): 100%; TRZAS herbicidal activity in percent ([7]; 80 g/ha): 0%; TRZAS herbicidal activity in percent ([7]; 320 g/ha): 10%; POLCO herbicidal activity in percent (Polygonum convolvulus; 80 g/ha): 100%; CYPES herbicidal activity in percent (Cyperus esculentus; 80 g/ha): 100%; CYPES herbicidal activity in percent (Cyperus esculentus; 320 g/ha): 100%; AVEFA herbicidal activity in percent (Avena fatua [13]; 320 g/ha): 90%
Cc1ccc2c(c1)[C@H](Nc1ncc3c(n1)CC(C(F)(F)F)CC3=O)[C@@H](C)C2 (some centres unmarked) [2.46] | 10% | 10% |  | 0% | 90% | 100% | 100% | 100% | 100% | 90% | 100% | 90% | 90% | 100% | 100% | 100% | 90% | 100% | 100% | 100% | post-emergence efficacy ZEAMX (Zea mays [14]; 80 g/ha): 0%; post-emergence efficacy ZEAMX (Zea mays [14]; 320 g/ha): 0%; post-emergence efficacy ORYSA (Oryza sativa [15]; 80 g/ha): 10%; post-emergence efficacy ORYSA (Oryza sativa [15]; 320 g/ha): 20%; post-emergence efficacy LOLMU (Lolium multiflorum [3]; 80 g/ha): 80%; post-emergence efficacy LOLMU (Lolium multiflorum [3]; 320 g/ha): 100%; post-emergence efficacy ALOMY (Alopecurus myosuroides [5]): 100%; ZEAMX herbicidal activity in percent (Zea mays [6]; 320 g/ha): 0%; TRZAS herbicidal activity in percent ([7]; 80 g/ha): 0%; TRZAS herbicidal activity in percent ([7]; 320 g/ha): 0%; logp (HCOOH) [8]: oily; logp (HCOOH): 3.24; 1H-NMR (CDCl3, 400 MHZ, δ in ppm): 1.25 (t, 3H, CH3);; SETVI herbicidal activity in percent (Setaria viridis [9]; 320 g/ha): 90%; LOLMU herbicidal activity in percent (Lolium multiflorum [10]; 80 g/ha): 100%; ABUTH herbicidal activity in percent (Abutilon theophrasti): 80%; ALOMY herbicidal activity in percent (Alopecurus myosuroides [12]; 80 g/ha): 90%
Cc1ccc2c(c1)[C@H](Nc1ncc3c(n1)CC(C)CC3=O)[C@@H](C)C2 (some centres unmarked) [2.44] | 0% | 0% | 100% | 10% | 100% | 100% | 100% | 100% | 100% | 90% | 100% | 100% | 90% | 100% | 100% | 100% | 100% | 100% | 100% | 100% | post-emergence efficacy ZEAMX (Zea mays [14]; 80 g/ha): 10%; post-emergence efficacy ORYSA (Oryza sativa [15]; 80 g/ha): 0%; post-emergence efficacy ORYSA (Oryza sativa [15]; 320 g/ha): 0%; post-emergence efficacy ECHCG (Echinochloa crus-galli [4]; 320 g/ha): 100%; post-emergence efficacy PHBPU (Ipomoea purpurea; 80 g/ha (dose by row order of upper half)): 100%; post-emergence efficacy PHBPU (Ipomoea purpurea; [18]): 100%; post-emergence efficacy AVEFA (Avena fatua [16]): 90%; ORYSA herbicidal activity in percent (Oryza sativa [17]): 20%; logp (HCOOH) [8]: oily; logp (HCOOH): 3.90;; SETVI herbicidal activity in percent (Setaria viridis [9]; 320 g/ha): 100%; POLCO herbicidal activity in percent (Polygonum convolvulus; 80 g/ha): 90%; LOLMU herbicidal activity in percent (Lolium multiflorum [10]; 80 g/ha): 100%; ALOMY herbicidal activity in percent (Alopecurus myosuroides [12]; 80 g/ha): 80%; AVEFA herbicidal activity in percent (Avena fatua [13]; 80 g/ha): 0%; AVEFA herbicidal activity in percent (Avena fatua [13]; 320 g/ha): 80%
